Patent US11197479B2, “Use of silthiofam for the treatment of soybean rust” (priority 2018, dated 2021)
Where “and” joins values, the source holds several entries; their conditions need not be identical. Equal entries are not always repeated.

Legend:
Phakopsora pachyrhizi [1] = experiment: Glasshouse pot trial: efficacy on soybean rust on soybean (Glycine max), visual estimation of degree of infection on leaves; type: in vivo
Experimental: (§1) In the tables presented below, the following terms have the following meaning:
Glasshouse pot trials were conducted to evaluate the effect and efficacy of silthiofam on soybean rust disease on soybean (Glycine max).
The trial was divided in 11 treatments. In 4 of the treatments, silthiofam was applied in different amounts.
(§2) Silthiofam compositions used in this trial were prepared from the suspension concentrate containing 125 g/L of silthiofam, diluted with water to predetermined concentration and sprayed on the plants in the predetermined amounts.
In two of the treatments, silthiofam was applied in combination with additional ingredients.
First combination was of silthiofam and chitosan, wherein silthiofam was applied in an amount of 250 g/ha on the plant first and chitosan was applied subsequently in an amount of 200 g/ha.
Second combination was a combination of silthiofam and tagatose, wherein silthiofam was applied in an amount of 250 g/ha simultaneously with tagatose in an amount of 200 g/ha.
Further 6 treatments were current market available treatments of soybean rust applied in the label prescribed dose, wherein the compositions used were prepared from commercially available products prepared according to the respective label instructions and sprayed on the plants.
One treatment of the trial consisted of fungi inoculated plants which received no treatment.
Soybean plants were treated two times with silthiofam and other treatments. First treatment was applied when soybean plants reached stage BBCH16 and the second treatment was applied when soybean plants reached stage BBCH61. Growth stages were defined according to Compendium of Growth Stage Identification Keys for Mono- and Dicotyledonous Plants, Extended BBCH scale, 2nd Edition 1997, ISBN 3-9520749-3-4.
After silthiofam and other treatments were applied first time, plants were inoculated with Phakopsora pachyrhizi spores and evaluation of leaves condition and disease spread was done every 7 days.
(§3) Method used for evaluation of disease spread was visual estimation of degree of infection on leaves.
The experimental design of the pot trial was randomized design with 4 pot replications per treatment applied, wherein six soybean plants were planted per pot.
Treatments were the following:
Treatment 1: Plant inoculated with P. pachyrhizi, no treatment applied
Treatment 2: Treatment with flutriafol and azoxystrobin mixture, applied in concentration of 31.25 g flutriafol/ha and 37.5 g azoxystrobin/ha
Treatment 3: Silthiofam treatment applied in 250 g silthiofam/ha
Treatment 4: Silthiofam treatment applied in 500 g silthiofam/ha
Treatment 5: Silthiofam treatment applied in 250 g silthiofam/ha and 200 g/ha of tagatose
Treatment 6: Silthiofam treatment applied in 250 g silthiofam/ha and 200 g/ha of chitosan
Treatment 7: Mancozeb applied in 1.68 kg mancozeb/ha
Treatment 8: Chlorothalonil applied in 626.4 g chlorothalonil/ha
Treatment 9: Azoxystrobin applied in 37.5 g azoxystrobin/ha
Treatment 10: Boscalid applied in 294 g boscalid/ha
Treatment 11: Prothioconazole and tebuconazole mixture applied as 42 g prothioconazole/ha and 84 g tebuconazole/ha

soybean rust disease = experiment: Field trial: efficacy on naturally infected soybean, visual estimation of degree of infection on leaves; type: in vivo, Glycine max
Experimental: as §1
Field trial was conducted to evaluate the effect and efficacy of silthiofam on soybean rust disease on soybean (Glycine max) wherein plants were naturally infected by the disease.
The trial was divided in the following […]:
one treatment where plants were left untreated and in which natural progression of the disease can be observed;
two treatments with silthiofam alone in different dosage amounts;
and four treatments where silthiofam was applied with other compounds, namely tagatose and chitosan in different dosage ratios.
Each treatment was applied on a plot of 6 ft*30 ft in size and was repeated in 4 replicates.
as §2
For each treatment, two applications of respective treatment were made with 19 days interval between. First application was made when soybean plant reached stage BBCH 64, and the second one when plant reached stage BBCH 73. Growth stages were defined according to Compendium of Growth Stage Identification Keys for Mono- and Dicotyledonous Plants, Extended BBCH scale, 2nd Edition 1997, ISBN 3-9520749-3-4.
as §3

Phakopsora pachyrhizi [2] = experiment: Glasshouse pot trial: efficacy on soybean rust on soybean (Glycine max), visual estimation of degree of infection on leaves; type: in vivo; settings: general statement; Phakopsora pachyrhizi and P. meibomiae

## C=CCNC(=O)c1c([Si](C)(C)C)sc(C)c1C [Silthiofam, N-allyl-4,5-dimethyl-2-(trimethylsilyl)thiophene-3-carboxamide]
Phakopsora pachyrhizi [1]; silthiofam 250 g/ha, 7/7 d after first/last application, 19 d after planting, LEALOW
  % efficacy: 71.5% and 90.9% and 93.6% and 88.9%
Phakopsora pachyrhizi [1]; silthiofam 250 g/ha, 7/7 d after first/last application, 19 d after planting, LEAMID
  % efficacy: 93.4% and 100.0% and 81.9% and 85.0%
Phakopsora pachyrhizi [1]; silthiofam 250 g/ha, 7/7 d after first/last application, 19 d after planting, LEAUPP
  % efficacy: 100.0%
Phakopsora pachyrhizi [1]; silthiofam 250 g/ha, 14/14 d after first/last application, 26 d after planting, LEALOW
  % efficacy: 89.0% and 82.0% and 84.7% and 84.1%
Phakopsora pachyrhizi [1]; silthiofam 250 g/ha, 14/14 d after first/last application, 26 d after planting, LEAMID
  % efficacy: 95.0% and 91.2% and 92.0% and 89.4%
Phakopsora pachyrhizi [1]; silthiofam 250 g/ha, 14/14 d after first/last application, 26 d after planting, LEAUPP
  % efficacy: 100.0%
Phakopsora pachyrhizi [1]; silthiofam 250 g/ha, 21/21 d after first/last application, 33 d after planting, LEALOW
  % efficacy: 78.0% and 76.0% and 82.0% and 80.0%
Phakopsora pachyrhizi [1]; silthiofam 250 g/ha, 21/21 d after first/last application, 33 d after planting, LEAMID
  % efficacy: 92.0% and 89.0% and 90.0% and 88.0%
Phakopsora pachyrhizi [1]; silthiofam 250 g/ha, 21/21 d after first/last application, 33 d after planting, LEAUPP
  % efficacy: 100.0%
Phakopsora pachyrhizi [1]; silthiofam 250 g/ha, 28/7 d after first/last application, 40 d after planting, LEALOW
  % efficacy: 82.0% and 80.0% and 84.0%
Phakopsora pachyrhizi [1]; silthiofam 250 g/ha, 28/7 d after first/last application, 40 d after planting, LEAMID
  % efficacy: 92.0% and 88.0% and 90.0%
Phakopsora pachyrhizi [1]; silthiofam 250 g/ha, 28/7 d after first/last application, 40 d after planting, LEAUPP
  % efficacy: 100.0%
Phakopsora pachyrhizi [1]; silthiofam 250 g/ha, 35/14 d after first/last application, 47 d after planting, LEAMID
  % efficacy: 78.0% and 82.0% and 80.0% and 84.0%
Phakopsora pachyrhizi [1]; silthiofam 250 g/ha, 35/14 d after first/last application, 47 d after planting, LEAUPP
  % efficacy: 94.5% and 98.0% and 95.5% and 92.9%
Phakopsora pachyrhizi [1]; silthiofam 250 g/ha, 42/21 d after first/last application, 54 d after planting, LEAMID
  % efficacy: 48.0% and 54.0% and 59.0% and 52.0%
Phakopsora pachyrhizi [1]; silthiofam 250 g/ha, 42/21 d after first/last application, 54 d after planting, LEAUPP
  % efficacy: 86.0% and 85.0% and 89.0%
Phakopsora pachyrhizi [1]; silthiofam 500 g/ha, 7/7 d after first/last application, 19 d after planting, LEALOW
  % efficacy: 85.8% and 95.5% and 93.6% and 97.3%
Phakopsora pachyrhizi [1]; silthiofam 500 g/ha, 7/7 d after first/last application, 19 d after planting, LEAMID
  % efficacy: 93.4% and 94.5% and 100.0%
Phakopsora pachyrhizi [1]; silthiofam 500 g/ha, 7/7 d after first/last application, 19 d after planting, LEAUPP
  % efficacy: 100.0%
Phakopsora pachyrhizi [1]; silthiofam 500 g/ha, 14/14 d after first/last application, 26 d after planting, LEALOW
  % efficacy: 92.0% and 90.0% and 94.7% and 91.9%
Phakopsora pachyrhizi [1]; silthiofam 500 g/ha, 14/14 d after first/last application, 26 d after planting, LEAMID
  % efficacy: 99.0% and 96.8% and 97.9%
Phakopsora pachyrhizi [1]; silthiofam 500 g/ha, 14/14 d after first/last application, 26 d after planting, LEAUPP
  % efficacy: 100.0%
Phakopsora pachyrhizi [1]; silthiofam 500 g/ha, 21/21 d after first/last application, 33 d after planting, LEALOW
  % efficacy: 89.0% and 86.0% and 92.0%
Phakopsora pachyrhizi [1]; silthiofam 500 g/ha, 21/21 d after first/last application, 33 d after planting, LEAMID
  % efficacy: 96.0% and 95.0% and 97.0%
Phakopsora pachyrhizi [1]; silthiofam 500 g/ha, 21/21 d after first/last application, 33 d after planting, LEAUPP
  % efficacy: 100.0%
Phakopsora pachyrhizi [1]; silthiofam 500 g/ha, 28/7 d after first/last application, 40 d after planting, LEALOW
  % efficacy: 88.0% and 90.0% and 85.0%
Phakopsora pachyrhizi [1]; silthiofam 500 g/ha, 28/7 d after first/last application, 40 d after planting, LEAMID
  % efficacy: 95.0% and 93.0% and 92.0%
Phakopsora pachyrhizi [1]; silthiofam 500 g/ha, 28/7 d after first/last application, 40 d after planting, LEAUPP
  % efficacy: 100.0%
Phakopsora pachyrhizi [1]; silthiofam 500 g/ha, 35/14 d after first/last application, 47 d after planting, LEAMID
  % efficacy: 92.0% and 89.0% and 90.0% and 86.0%
Phakopsora pachyrhizi [1]; silthiofam 500 g/ha, 35/14 d after first/last application, 47 d after planting, LEAUPP
  % efficacy: 98.9% and 100.0% and 90.9%
Phakopsora pachyrhizi [1]; silthiofam 500 g/ha, 42/21 d after first/last application, 54 d after planting, LEAMID
  % efficacy: 79.0% and 72.0% and 80.0% and 82.0%
Phakopsora pachyrhizi [1]; silthiofam 500 g/ha, 42/21 d after first/last application, 54 d after planting, LEAUPP
  % efficacy: 92.0% and 90.0% and 95.0% and 93.0%
Soybean rust disease; silthiofam 125 g/ha, 14/14 d after first/last application, LEALOW
  % efficacy: 88.9% and 84.3% and 63.4% and 77.3%
Soybean rust disease; silthiofam 125 g/ha, 14/14 d after first/last application, LEAMID
  % efficacy: 95.5% and 92.9% and 95.0% and 90.9%
Soybean rust disease; silthiofam 125 g/ha, 14/14 d after first/last application, LEAUPP
  % efficacy: 0.0%
Soybean rust disease; silthiofam 125 g/ha, 20/1 d after first/last application, LEALOW
  % efficacy: 68.2% and 56.0% and 64.1% and 69.1%
Soybean rust disease; silthiofam 125 g/ha, 20/1 d after first/last application, LEAMID
  % efficacy: 83.3% and 78.2% and 80.4%
Soybean rust disease; silthiofam 125 g/ha, 20/1 d after first/last application, LEAUPP
  % efficacy: 90.9% and 88.9% and 100.0% and 94.4%
Soybean rust disease; silthiofam 125 g/ha, 27/8 d after first/last application, LEALOW
  % efficacy: 35.00% and 42.00% and 36.00%
Soybean rust disease; silthiofam 125 g/ha, 27/8 d after first/last application, LEAMID
  % efficacy: 77.9% and 75.0% and 78.6% and 80.3%
Soybean rust disease; silthiofam 125 g/ha, 27/8 d after first/last application, LEAUPP
  % efficacy: 89.3% and 85.7% and 93.3% and 95.2%
Soybean rust disease; silthiofam 125 g/ha, 34/15 d after first/last application, LEALOW
  % efficacy: 45.0% and 35.0% and 52.0% and 55.0%
Soybean rust disease; silthiofam 125 g/ha, 34/15 d after first/last application, LEAMID
  % efficacy: 72.0% and 67.0% and 72.7%
Soybean rust disease; silthiofam 125 g/ha, 34/15 d after first/last application, LEAUPP
  % efficacy: 90.9% and 86.2% and 92.2%
Soybean rust disease; silthiofam 250 g/ha, 14/14 d after first/last application, LEALOW
  % efficacy: 66.7% and 56.9% and 73.2% and 59.1%
Soybean rust disease; silthiofam 250 g/ha, 14/14 d after first/last application, LEAMID
  % efficacy: 81.8% and 78.6% and 70.0% and 63.6%
Soybean rust disease; silthiofam 250 g/ha, 14/14 d after first/last application, LEAUPP
  % efficacy: 0.0%
Soybean rust disease; silthiofam 250 g/ha, 20/1 d after first/last application, LEALOW
  % efficacy: 60.2% and 45.3% and 57.7% and 65.4%
Soybean rust disease; silthiofam 250 g/ha, 20/1 d after first/last application, LEAMID
  % efficacy: 68.8% and 67.3% and 78.4%
Soybean rust disease; silthiofam 250 g/ha, 20/1 d after first/last application, LEAUPP
  % efficacy: 81.8% and 83.3% and 90.0% and 100.0%
Soybean rust disease; silthiofam 250 g/ha, 27/8 d after first/last application, LEALOW
  % efficacy: 55.00% and 65.00% and 58.00% and 48.00%
Soybean rust disease; silthiofam 250 g/ha, 27/8 d after first/last application, LEAMID
  % efficacy: 61.8% and 61.1% and 68.6% and 62.1%
Soybean rust disease; silthiofam 250 g/ha, 27/8 d after first/last application, LEAUPP
  % efficacy: 82.1% and 77.1% and 83.3% and 88.1%
Soybean rust disease; silthiofam 250 g/ha, 34/15 d after first/last application, LEALOW
  % efficacy: 25.0% and 22.0% and 30.0% and 35.0%
Soybean rust disease; silthiofam 250 g/ha, 34/15 d after first/last application, LEAMID
  % efficacy: 62.0% and 58.0% and 56.8%
Soybean rust disease; silthiofam 250 g/ha, 34/15 d after first/last application, LEAUPP
  % efficacy: 67.3% and 62.1% and 54.5% and 57.8%
Phakopsora pachyrhizi [2]
  activity against soybean rust causing fungi: high activity
